Laboratory results: ChEMBL document CHEMBL3259590, “The discovery of diazepinone-based 5-HT3 receptor partial agonists” (Bioorg Med Chem Lett, 2014)

Molecular target: T1, 5-hydroxytryptamine receptor 3A (Homo sapiens, UniProt P46098)
T1 sequence (P46098 whole entry): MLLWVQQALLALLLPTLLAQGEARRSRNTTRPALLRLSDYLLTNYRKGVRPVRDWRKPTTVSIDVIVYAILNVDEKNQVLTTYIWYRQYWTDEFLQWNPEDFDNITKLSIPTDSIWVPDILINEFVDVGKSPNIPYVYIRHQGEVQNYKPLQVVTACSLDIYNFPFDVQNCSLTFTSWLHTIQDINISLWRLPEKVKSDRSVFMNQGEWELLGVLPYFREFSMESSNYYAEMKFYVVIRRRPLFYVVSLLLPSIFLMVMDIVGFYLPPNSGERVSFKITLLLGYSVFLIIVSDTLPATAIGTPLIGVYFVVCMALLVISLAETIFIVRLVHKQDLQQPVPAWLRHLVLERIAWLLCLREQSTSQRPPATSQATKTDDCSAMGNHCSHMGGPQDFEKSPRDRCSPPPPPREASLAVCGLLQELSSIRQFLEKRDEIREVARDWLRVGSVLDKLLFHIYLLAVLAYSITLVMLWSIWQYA
Assay: Displacement of [9-methyl-3H]BRL-43694 from human 5-HT3A receptor after overnight incubation by scintillation proximity assay
Conditions: not given

| Compound | Ki [µM] |
| --- | --- |
| O=C1c2cccc3ccn(c23)CCN1[C@@H]1CN2CCC1CC2 | 0.0031 |
| O=C1c2cc(F)cc3cnn(c23)CCN1[C@@H]1CN2CCC1CC2 | 0.0064 |
| O=C1c2cccc3[nH]c(=O)n(c23)CCN1[C@@H]1CN2CCC1CC2 | 0.0057 |
| O=C1c2cccc3cnn(c23)CCN1[C@@H]1CN2CCC1CC2 | 0.0081 |
| COc1cc2c3c(cnn3CCN([C@@H]3CN4CCC3CC4)C2=O)c1 | 0.0135 |

Molecular target: T2, 5-hydroxytryptamine receptor 3A (Homo sapiens) (UniProt P46098)
T2 sequence (whole entry): T1 sequence (P46098 whole entry)
Assay: Partial agonist activity at human 5-HT3A receptor expressed in HEK293 cells assessed as change in Ca2+ level measured as intrinsic activity at 1 uM relative to 5-HT in presence of carbachol
Type: cell-based
Conditions: not given

| Compound | Activity [%] |
| --- | --- |
| O=C1c2cccc3ccn(c23)CCN1[C@@H]1CN2CCC1CC2 | 7 |
| O=C1c2cc(F)cc3cnn(c23)CCN1[C@@H]1CN2CCC1CC2 | 30 |
| O=C1c2cccc3[nH]c(=O)n(c23)CCN1[C@@H]1CN2CCC1CC2 | 83 |
| O=C1c2cccc3cnn(c23)CCN1[C@@H]1CN2CCC1CC2 | 19 |
| COc1cc2c3c(cnn3CCN([C@@H]3CN4CCC3CC4)C2=O)c1 | 87 |

Molecular target: T3, 5-hydroxytryptamine receptor 3A (Mus musculus) (UniProt P23979)
T3 sequence (whole entry): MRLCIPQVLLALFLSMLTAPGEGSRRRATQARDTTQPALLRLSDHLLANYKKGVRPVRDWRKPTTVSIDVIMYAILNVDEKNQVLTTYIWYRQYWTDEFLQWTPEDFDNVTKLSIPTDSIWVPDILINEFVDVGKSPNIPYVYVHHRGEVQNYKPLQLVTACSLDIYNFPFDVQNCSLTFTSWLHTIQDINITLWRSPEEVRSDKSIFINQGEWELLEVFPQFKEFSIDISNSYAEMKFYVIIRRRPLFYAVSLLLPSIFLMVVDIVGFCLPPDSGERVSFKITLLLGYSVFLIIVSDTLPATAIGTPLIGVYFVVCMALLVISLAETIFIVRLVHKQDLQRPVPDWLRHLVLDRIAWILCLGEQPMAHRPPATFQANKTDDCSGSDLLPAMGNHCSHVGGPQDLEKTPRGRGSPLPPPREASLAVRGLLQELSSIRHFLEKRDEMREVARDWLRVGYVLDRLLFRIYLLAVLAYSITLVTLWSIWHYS
Assay: Partial agonist activity at mouse 5-HT3A receptor expressed in HEK293 cells assessed as change in Ca2+ level measured as intrinsic activity at 1 uM relative to 5-HT in presence of carbachol
Type: cell-based
Conditions: not given

| Compound | Activity [%] |
| --- | --- |
| O=C1c2cc(F)cc3cnn(c23)CCN1[C@@H]1CN2CCC1CC2 | 31 |
| O=C1c2cccc3cnn(c23)CCN1[C@@H]1CN2CCC1CC2 | 16 |
| COc1cc2c3c(cnn3CCN([C@@H]3CN4CCC3CC4)C2=O)c1 | 81 |

Molecular target: T1, 5-hydroxytryptamine receptor 3A
Assay: Agonist activity at human 5-HT3A receptor expressed in HEK293 cells in presence of carbachol
Type: cell-based
Conditions: not given

| Compound | EC50 [µM] |
| --- | --- |
| O=C1c2cccc3ccn(c23)CCN1[C@@H]1CN2CCC1CC2 | 0.178 |
| O=C1c2cc(F)cc3cnn(c23)CCN1[C@@H]1CN2CCC1CC2 | 0.178 |
| O=C1c2cccc3[nH]c(=O)n(c23)CCN1[C@@H]1CN2CCC1CC2 | 0.178 |
| O=C1c2cccc3cnn(c23)CCN1[C@@H]1CN2CCC1CC2 | 0.178 |
| COc1cc2c3c(cnn3CCN([C@@H]3CN4CCC3CC4)C2=O)c1 | 0.178 |

Molecular target: T4, 5-hydroxytryptamine receptor 3A (Mus musculus, UniProt P23979)
T4 sequence (P23979 whole entry): T3 sequence (whole entry)
Assay: Agonist activity at mouse 5-HT3A receptor expressed in HEK293 cells in presence of carbachol
Type: cell-based
Conditions: not given

| Compound | EC50 [µM] |
| --- | --- |
| O=C1c2cc(F)cc3cnn(c23)CCN1[C@@H]1CN2CCC1CC2 | 0.178 |
| O=C1c2cccc3cnn(c23)CCN1[C@@H]1CN2CCC1CC2 | 0.178 |
| COc1cc2c3c(cnn3CCN([C@@H]3CN4CCC3CC4)C2=O)c1 | 0.178 |

Molecular target: T5, Cytochrome P450 1A2 (Homo sapiens, UniProt P05177)
T5 sequence (P05177 whole entry): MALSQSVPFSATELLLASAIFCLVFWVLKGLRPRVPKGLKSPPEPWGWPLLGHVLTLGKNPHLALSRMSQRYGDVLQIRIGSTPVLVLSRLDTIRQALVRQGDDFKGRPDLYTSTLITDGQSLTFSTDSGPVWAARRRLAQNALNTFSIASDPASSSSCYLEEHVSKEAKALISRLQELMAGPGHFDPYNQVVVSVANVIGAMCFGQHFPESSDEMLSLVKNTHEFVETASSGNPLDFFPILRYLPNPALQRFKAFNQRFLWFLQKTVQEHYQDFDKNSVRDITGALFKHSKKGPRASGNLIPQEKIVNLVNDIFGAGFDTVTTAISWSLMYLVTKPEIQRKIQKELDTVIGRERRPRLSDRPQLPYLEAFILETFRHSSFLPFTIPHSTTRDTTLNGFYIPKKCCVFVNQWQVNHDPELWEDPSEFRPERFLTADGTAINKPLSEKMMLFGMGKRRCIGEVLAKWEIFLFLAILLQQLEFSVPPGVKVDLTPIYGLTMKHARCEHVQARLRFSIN
Assay: Inhibition of CYP1A2 (unknown origin)
Type: ADME
Conditions: not given

| Compound | IC50 [µM] |
| --- | --- |
| O=C1c2cccc3ccn(c23)CCN1[C@@H]1CN2CCC1CC2 | > 50 |
| O=C1c2cc(F)cc3cnn(c23)CCN1[C@@H]1CN2CCC1CC2 | > 50 |
| O=C1c2cccc3[nH]c(=O)n(c23)CCN1[C@@H]1CN2CCC1CC2 | > 50 |
| O=C1c2cccc3cnn(c23)CCN1[C@@H]1CN2CCC1CC2 | > 50 |
| COc1cc2c3c(cnn3CCN([C@@H]3CN4CCC3CC4)C2=O)c1 | > 50 |

Molecular target: T6, Cytochrome P450 2B6 (Homo sapiens, UniProt P20813)
T6 sequence (P20813 whole entry): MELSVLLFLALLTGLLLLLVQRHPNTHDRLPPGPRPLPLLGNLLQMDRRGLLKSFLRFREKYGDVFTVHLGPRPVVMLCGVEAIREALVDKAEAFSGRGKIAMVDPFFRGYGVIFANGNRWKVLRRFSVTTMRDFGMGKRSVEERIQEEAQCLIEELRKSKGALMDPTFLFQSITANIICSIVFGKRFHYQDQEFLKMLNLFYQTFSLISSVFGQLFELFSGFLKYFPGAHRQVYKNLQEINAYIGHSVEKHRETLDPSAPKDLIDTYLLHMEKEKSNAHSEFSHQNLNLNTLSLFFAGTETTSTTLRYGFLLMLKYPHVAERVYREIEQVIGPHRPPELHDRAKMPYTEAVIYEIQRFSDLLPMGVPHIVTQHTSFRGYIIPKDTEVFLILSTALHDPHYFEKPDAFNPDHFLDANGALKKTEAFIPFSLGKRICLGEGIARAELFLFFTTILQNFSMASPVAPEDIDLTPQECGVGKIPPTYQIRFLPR
Assay: Inhibition of CYP2B6 (unknown origin)
Type: ADME
Conditions: not given

| Compound | IC50 [µM] |
| --- | --- |
| O=C1c2cccc3ccn(c23)CCN1[C@@H]1CN2CCC1CC2 | > 50 |
| O=C1c2cc(F)cc3cnn(c23)CCN1[C@@H]1CN2CCC1CC2 | > 50 |
| O=C1c2cccc3[nH]c(=O)n(c23)CCN1[C@@H]1CN2CCC1CC2 | > 50 |
| O=C1c2cccc3cnn(c23)CCN1[C@@H]1CN2CCC1CC2 | > 50 |
| COc1cc2c3c(cnn3CCN([C@@H]3CN4CCC3CC4)C2=O)c1 | > 50 |

Molecular target: Cytochrome P450 2C9 (Homo sapiens, UniProt P11712)
Sequence (P11712 whole entry): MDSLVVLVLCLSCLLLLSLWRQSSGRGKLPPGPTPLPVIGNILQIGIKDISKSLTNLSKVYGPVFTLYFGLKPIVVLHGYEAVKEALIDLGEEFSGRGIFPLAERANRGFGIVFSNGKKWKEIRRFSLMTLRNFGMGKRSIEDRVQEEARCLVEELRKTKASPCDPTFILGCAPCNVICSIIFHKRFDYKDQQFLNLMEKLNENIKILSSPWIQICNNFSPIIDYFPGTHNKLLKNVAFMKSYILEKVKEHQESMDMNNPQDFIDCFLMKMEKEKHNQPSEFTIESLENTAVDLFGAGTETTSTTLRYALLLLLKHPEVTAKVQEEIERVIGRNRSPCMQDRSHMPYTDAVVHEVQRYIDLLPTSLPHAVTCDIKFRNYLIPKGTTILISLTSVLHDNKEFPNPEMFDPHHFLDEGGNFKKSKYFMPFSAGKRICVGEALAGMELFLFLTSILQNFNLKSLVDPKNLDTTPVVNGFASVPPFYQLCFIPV
Assay: Inhibition of CYP2C9 (unknown origin)
Type: ADME
Conditions: not given

| Compound | IC50 [µM] |
| --- | --- |
| O=C1c2cccc3ccn(c23)CCN1[C@@H]1CN2CCC1CC2 | > 50 |
| O=C1c2cc(F)cc3cnn(c23)CCN1[C@@H]1CN2CCC1CC2 | > 50 |
| O=C1c2cccc3[nH]c(=O)n(c23)CCN1[C@@H]1CN2CCC1CC2 | > 50 |
| O=C1c2cccc3cnn(c23)CCN1[C@@H]1CN2CCC1CC2 | > 50 |
| COc1cc2c3c(cnn3CCN([C@@H]3CN4CCC3CC4)C2=O)c1 | > 50 |

Molecular target: Cytochrome P450 2C19 (Homo sapiens, UniProt P33261)
Sequence (P33261 whole entry): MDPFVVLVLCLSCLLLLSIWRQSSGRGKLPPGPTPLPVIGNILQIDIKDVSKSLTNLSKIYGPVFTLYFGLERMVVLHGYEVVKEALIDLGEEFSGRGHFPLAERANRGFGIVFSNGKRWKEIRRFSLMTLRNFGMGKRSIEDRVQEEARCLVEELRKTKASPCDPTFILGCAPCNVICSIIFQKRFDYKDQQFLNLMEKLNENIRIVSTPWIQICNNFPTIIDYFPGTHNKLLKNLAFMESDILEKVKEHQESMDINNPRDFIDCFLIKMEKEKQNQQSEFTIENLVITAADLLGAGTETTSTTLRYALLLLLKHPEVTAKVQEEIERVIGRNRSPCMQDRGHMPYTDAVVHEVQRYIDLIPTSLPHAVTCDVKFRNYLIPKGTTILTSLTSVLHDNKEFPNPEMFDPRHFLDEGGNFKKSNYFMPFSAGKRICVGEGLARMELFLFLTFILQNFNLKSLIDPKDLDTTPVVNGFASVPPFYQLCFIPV
Assay: Inhibition of CYP2C19 (unknown origin)
Type: ADME
Conditions: not given

| Compound | IC50 [µM] |
| --- | --- |
| O=C1c2cccc3ccn(c23)CCN1[C@@H]1CN2CCC1CC2 | > 50 |
| O=C1c2cc(F)cc3cnn(c23)CCN1[C@@H]1CN2CCC1CC2 | > 50 |
| O=C1c2cccc3[nH]c(=O)n(c23)CCN1[C@@H]1CN2CCC1CC2 | > 50 |
| O=C1c2cccc3cnn(c23)CCN1[C@@H]1CN2CCC1CC2 | > 50 |
| COc1cc2c3c(cnn3CCN([C@@H]3CN4CCC3CC4)C2=O)c1 | > 50 |

Molecular target: Cytochrome P450 2D6 (Homo sapiens, UniProt P10635)
Sequence (P10635 whole entry): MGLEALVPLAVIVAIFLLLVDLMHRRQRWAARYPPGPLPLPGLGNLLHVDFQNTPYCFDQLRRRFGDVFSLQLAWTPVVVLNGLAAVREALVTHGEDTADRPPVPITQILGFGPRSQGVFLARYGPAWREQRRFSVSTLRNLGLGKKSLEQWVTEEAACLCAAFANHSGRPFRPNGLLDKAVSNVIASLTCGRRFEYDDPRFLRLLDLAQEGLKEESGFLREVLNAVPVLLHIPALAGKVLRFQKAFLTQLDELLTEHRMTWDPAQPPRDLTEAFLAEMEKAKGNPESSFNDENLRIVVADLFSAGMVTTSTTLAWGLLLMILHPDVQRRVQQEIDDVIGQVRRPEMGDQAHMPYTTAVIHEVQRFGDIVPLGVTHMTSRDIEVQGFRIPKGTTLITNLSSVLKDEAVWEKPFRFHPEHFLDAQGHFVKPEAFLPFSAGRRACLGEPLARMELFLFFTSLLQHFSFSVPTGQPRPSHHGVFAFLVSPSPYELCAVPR
Assay: Inhibition of CYP2D6 (unknown origin)
Type: ADME
Conditions: not given

| Compound | IC50 [µM] |
| --- | --- |
| O=C1c2cccc3ccn(c23)CCN1[C@@H]1CN2CCC1CC2 | > 50 |
| O=C1c2cc(F)cc3cnn(c23)CCN1[C@@H]1CN2CCC1CC2 | > 50 |
| O=C1c2cccc3[nH]c(=O)n(c23)CCN1[C@@H]1CN2CCC1CC2 | > 50 |
| O=C1c2cccc3cnn(c23)CCN1[C@@H]1CN2CCC1CC2 | > 50 |
| COc1cc2c3c(cnn3CCN([C@@H]3CN4CCC3CC4)C2=O)c1 | > 50 |

Molecular target: Cytochrome P450 3A4 (Homo sapiens, UniProt P08684)
Sequence (P08684 whole entry): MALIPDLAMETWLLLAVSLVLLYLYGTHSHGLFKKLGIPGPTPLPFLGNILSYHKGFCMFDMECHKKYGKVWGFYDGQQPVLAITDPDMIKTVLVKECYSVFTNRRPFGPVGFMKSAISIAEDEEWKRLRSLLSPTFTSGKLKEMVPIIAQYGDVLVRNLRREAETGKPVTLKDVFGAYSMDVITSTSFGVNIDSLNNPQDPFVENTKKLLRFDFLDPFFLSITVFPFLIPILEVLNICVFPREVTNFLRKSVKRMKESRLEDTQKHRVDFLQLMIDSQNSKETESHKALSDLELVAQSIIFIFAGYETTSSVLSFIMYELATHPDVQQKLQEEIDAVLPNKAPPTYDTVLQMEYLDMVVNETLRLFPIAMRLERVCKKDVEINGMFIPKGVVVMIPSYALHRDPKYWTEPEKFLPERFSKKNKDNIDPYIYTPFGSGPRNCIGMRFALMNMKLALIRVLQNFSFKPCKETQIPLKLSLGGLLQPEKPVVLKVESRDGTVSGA
Assay: Inhibition of CYP3A4 (unknown origin)
Type: ADME
Conditions: not given

| Compound | IC50 [µM] |
| --- | --- |
| O=C1c2cccc3ccn(c23)CCN1[C@@H]1CN2CCC1CC2 | > 50 |
| O=C1c2cc(F)cc3cnn(c23)CCN1[C@@H]1CN2CCC1CC2 | > 50 |
| O=C1c2cccc3[nH]c(=O)n(c23)CCN1[C@@H]1CN2CCC1CC2 | > 50 |
| O=C1c2cccc3cnn(c23)CCN1[C@@H]1CN2CCC1CC2 | > 50 |
| COc1cc2c3c(cnn3CCN([C@@H]3CN4CCC3CC4)C2=O)c1 | > 50 |

Tested on: not listed separately
Assay: Intrinsic clearance in human liver microsomes
Type: ADME
Conditions: read-out: CLH

| Compound | microsomal CLint [µL/min/mg] |
| --- | --- |
| O=C1c2cccc3ccn(c23)CCN1[C@@H]1CN2CCC1CC2 | < 1.7 |
| O=C1c2cc(F)cc3cnn(c23)CCN1[C@@H]1CN2CCC1CC2 | 8.8 |
| O=C1c2cccc3[nH]c(=O)n(c23)CCN1[C@@H]1CN2CCC1CC2 | 8.4 |
| O=C1c2cccc3cnn(c23)CCN1[C@@H]1CN2CCC1CC2 | < 1.7 |
| COc1cc2c3c(cnn3CCN([C@@H]3CN4CCC3CC4)C2=O)c1 | 1.8 |

Tested on: Mus musculus
Assay: Inhibition of 5-HT induced-bradycardia in ICR mouse von Bezold-Jarisch reflex model at 3 mg/kg, po after 60 mins relative to control
Type: functional
Conditions: 1 h

| Compound | inhibition in vivo at 3 mg/kg [%] |
| --- | --- |
| O=C1c2cccc3cnn(c23)CCN1[C@@H]1CN2CCC1CC2 | 77 |
